Source: patent US20210387996A1, “TRICYCLIC COMPOUNDS FOR THE TREATMENT AND PROPHYLAXIS OF HEPATITIS B VIRUS DISEASE” (priority 2018, published 2021)

Test system: HBeAg level in HepDES19 cells (surrogate marker for cccDNA)
Assay: Engineered HepDES19 primary screen assay (HBeAg as surrogate marker for cccDNA)
Format: cell-based, HBV
Settings: Hepatitis B virus, HepDES19, 120 h, read-out: IC50 (HBeAg level, HepDES19 primary screen assay)
From the text: The assay was employed to screen for novel cccDNA inhibitors. HepDES19 is a cccDNA-producing cell line. In this cell line, HBeAg in the cell culture supernatant as surrogate marker, as HBeAg production depends on cccDNA level and activity. HepDES19 is an engineered cell line which contains a 1.1 unit length HBV genome, and pgRNA transcription from the transgene is controlled by Tetracycline (Tet). In the absence of Tet, pgRNA transcription will be induced, but HBV e antigen (HBeAg) could not be produced from this pgRNA due to very short leader sequence before the HBeAg start codon and the start codon is disrupted. Only after cccDNA is formed, the missing leader sequence and start codon mutation would be restored from the 3′-terminal redundancy of pgRNA, and then HBeAg could be synthesized. Therefore, HBeAg could be used as a surrogate marker for cccDNA (Zhou, T. et al., Antiviral Res. (2006), 72(2), 116-124; Guo, H. et al., J. Virol. (2007), 81(22), 12472-12484).
HepDES19 cells were seeded at 2×10^6 cells per T150 flask and cultured with the culture medium (Dulbecco's Modified Eagle Medium: Nutrient Mixture F-12 [DMEM-F12, Gibco Cat. 11320-82], 10% Fetal Bovine Serum [FBS, Clontech Cat. 631101], 0.1 mM Non-Essential Amino Acids Solution [NEAA, Gibco Cat. 11140-050], 50 μg/mL Penicillin-Streptomycin [PS, Invitrogen Cat. 15140-163], 500 μg/mL Geneticin [G418, Invitrogen Cat. 10131-027]) containing 3 μg/mL Tet (Sigma, Cat. 87128) for 5 days. Cells were then seeded at 4×10^6 cells per T150 in the same culture medium as described above in the absence of Tet for 8 days. Cells were then harvested and frozen at density of 2×10^6 cells per mL. For compound testing, the frozen cells were thawed and seeded into 96-well plates at a density of 6×10^4 cells per well. At 24 hours after seeding, half log serial dilutions of compounds made with Dimethyl sulfoxide (DMSO, Sigma, Cat. D2650) were further diluted with the same culture medium as described above before they were added to the cells to reach desired final compound concentrations and 1% DMSO concentration. Plates were then incubated at 37° C. for another 5 days before measurement of HBeAg level and cell viability. Intracellular HBeAg level were measured with enzyme-linked immunosorbent assay (ELISA) kit (Shanghai Kehua Diagnostic Medical Products Co., Ltd). Cell viability was assessed using Cell Counting Kit-8 (Donjindo, Cat. CK04-20). IC50 values were derived from the dose-response curve using 4 parameter logistic curve fit method.
The compounds of the present invention were tested for their capacity to inhibit extracellular HBeAg level as described herein.

Compound	IC50 [µM]
O=C(c1ccccc1F)N1CCc2c(oc3c(Cl)cccc3c2=O)C1 [Example 4, 9-chloro-2-(2-fluorobenzoyl)-3,4-dihydro-1H-chromeno[2,3-c]pyridin-5-one]	23.4
O=C1c2oc3c(Cl)cccc3c(=O)c2CCN1c1cccc(OC(F)(F)F)c1 [Example 21, 9-chloro-2-(3-(trifluoromethoxy)phenyl)-3,4-dihydro-2H-chromeno[2,3-c]pyridine-1,5-dione]	47.5
COc1ccc(N2Cc3c(oc4c(Cl)cccc4c3=O)C2=O)cc1 [Example 52, 5-chloro-2-(4-methoxyphenyl)-1H-chromeno[2,3-c]pyrrole-3,9-dione]	37.7
O=c1c2c(oc3c(Cl)cccc13)CN(Cc1ccccc1)CC2 [Example 2, 2-benzyl-9-chloro-3,4-dihydro-1H-chromeno[2,3-c]pyridin-5(2H)-one]	49.8
Cc1ccc(C)c(N2CCc3c(oc4c(Cl)cccc4c3=O)C2=O)c1 [Example 31, 9-chloro-2-(2,5-dimethylphenyl)-3,4-dihydro-2H-chromeno[2,3-c]pyridine-1,5-dione]	7.13
O=C(Nc1ccccc1F)N1CCc2c(oc3c(Cl)cccc3c2=O)C1 [Example 7, 9-chloro-N-(2-fluorophenyl)-5-oxo-3,4-dihydro-1H-chromeno[2,3-c]pyridine-2(5H)-carboxamide]	39.8
O=C1c2oc3c(Cl)cccc3c(=O)c2CCN1c1ccc(OC(F)(F)F)cc1Cl [Example 32, 9-chloro-2-(2-chloro-4-(trifluoromethoxy)phenyl)-3,4-dihydro-2H-chromeno[2,3-c]pyridine-1,5-dione]	10.8
COCOc1cc(Cl)ccc1N1CCc2c(oc3c(Cl)cccc3c2=O)C1=O [Example 46, 9-chloro-2-(4-chloro-2-(methoxymethoxy)phenyl)-3,4-dihydro-2H-chromeno[2,3-c]pyridine-1,5-dione]	9.84
N#Cc1cc(Cl)ccc1N1CCc2c(oc3c(Cl)cccc3c2=O)C1=O [Example 37, 5-chloro-2-(9-chloro-1,5-dioxo-1,3,4,5-tetrahydro-2H-chromeno[2,3-c]pyridin-2-yl)benzonitrile]	12.2
O=C1c2oc3c(Cl)cccc3c(=O)c2CCN1c1ccc(OC(F)(F)F)cc1 [Example 33, 9-chloro-2-(4-(trifluoromethoxy)phenyl)-3,4-dihydro-2H-chromeno[2,3-c]pyridine-1,5-dione]	1.84
O=C(c1nccc2ccccc12)N1CCc2c(oc3c(Cl)cccc3c2=O)C1 [Example 6, 9-chloro-2-(isoquinoline-1-carbonyl)-3,4-dihydro-1H-chromeno[2,3-c]pyridin-5(2H)-one]	21.6
O=C(c1cc(Cl)ccc1N1CCc2c(oc3c(Cl)cccc3c2=O)C1=O)N1CCCC1 [Example 47, 9-chloro-2-(4-chloro-2-(pyrrolidine-1-carbonyl)phenyl)-3,4-dihydro-2H-chromeno[2,3-c]pyridine-1,5-dione]	3.29
O=C1c2oc3c(Cl)cccc3c(=O)c2CCN1c1ccc(Br)cc1 [Example 15, 2-(4-bromophenyl)-9-chloro-3,4-dihydro-2H-chromeno[2,3-c]pyridine-1,5-dione]	10.5
COc1ccc(COc2cc(Cl)cnc2N2CCc3c(oc4c(Cl)cccc4c3=O)C2=O)cc1 [Example 45, 9-chloro-2-(5-chloro-3-((4-methoxybenzyl)oxy)pyridin-2-yl)-3,4-dihydro-2H-chromeno[2,3-c]pyridine-1,5-dione]	6.24
COCc1cc(Cl)ccc1N1CCc2c(oc3c(Cl)cccc3c2=O)C1=O [Example 50, 9-chloro-2-(4-chloro-2-(methoxymethyl)phenyl)-3,4-dihydro-2H-chromeno[2,3-c]pyridine-1,5-dione]	26.4
COC(=O)c1ccc(N2CCc3c(oc4c(Cl)cccc4c3=O)C2=O)cc1 [Example 10, methyl 4-(9-chloro-1,5-dioxo-3,4-dihydro-1H-chromeno[2,3-c]pyridin-2(5H)-yl)benzoate]	7.78

Compound	IC50 [µM]
O=C1c2oc3c(Cl)cccc3c(=O)c2CCN1c1ccc(Cl)cc1Br [Example 44, 2-(2-bromo-4-chlorophenyl)-9-chloro-3,4-dihydro-2H-chromeno[2,3-c]pyridine-1,5-dione]	6.22
COc1ccc(CN2CCc3c(oc4c(Cl)cccc4c3=O)C2=O)cc1 [Example 5, 9-chloro-2-[(4-methoxyphenyl)methyl]-3,4-dihydrochromeno[2,3-c]pyridine-1,5-dione]	26
COC(=O)c1cc(N2CCc3c(oc4c(Cl)cccc4c3=O)C2=O)ccc1Cl [Example 24, methyl 2-chloro-5-(9-chloro-1,5-dioxo-1,3,4,5-tetrahydro-2H-chromeno[2,3-c]pyridin-2-yl)benzoate]	46.1
O=C(O)C1CC(Oc2ccc(N3CCc4c(oc5c(Cl)cccc5c4=O)C3=O)cc2)C1 (stereo not shown) [Example 11, 3-(4-(9-chloro-1,5-dioxo-3,4-dihydro-1H-chromeno[2,3-c]pyridin-2(5H)-yl)phenoxy)cyclobutanecarboxylic Acid]	19
Cc1cc(Cl)ccc1N1CCc2c(oc3c(Cl)cccc3c2=O)C1=O [Example 38, 9-chloro-2-(4-chloro-2-methylphenyl)-3,4-dihydro-2H-chromeno[2,3-c]pyridine-1,5-dione]	2.12
COC(=O)c1cccc(N2CCc3c(oc4c(Cl)cccc4c3=O)C2=O)c1 [Example 8, methyl 3-(9-chloro-1,5-dioxo-3,4-dihydro-1H-chromeno[2,3-c]pyridin-2(5H)-yl)benzoate]	0.23
O=c1c2c(oc3c(Cl)cccc13)CN(c1ccc(Cl)c(Cl)c1)CC2 [Example 49, 9-chloro-2-(3,4-dichlorophenyl)-1,2,3,4-tetrahydro-5H-chromeno[2,3-c]pyridin-5-one]	40.1
CCOc1cc(Cl)ccc1N1CCc2c(oc3c(Cl)cccc3c2=O)C1=O [Example 48, 9-chloro-2-(4-chloro-2-ethoxyphenyl)-3,4-dihydro-2H-chromeno[2,3-c]pyridine-1,5-dione]	6.9
COC(=O)c1cccc(CN2CCc3c(oc4c(Cl)cccc4c3=O)C2)c1 [Example 3, methyl 3-((9-chloro-5-oxo-3,4-dihydro-1H-chromeno[2,3-c]pyridin-2(5H)-yl)methyl)benzoate]	30.7
COC(=O)c1ccc(N2CCc3c(oc4c(Cl)cccc4c3=O)C2)nc1 [Example 13, methyl 6-(9-chloro-5-oxo-3,4-dihydro-1H-chromeno[2,3-c]pyridin-2(5H)-yl)nicotinate]	41.6
O=c1c2c(oc3c(Cl)cccc13)CN(c1ccc(Cl)cc1)CC2 [Example 42, 9-chloro-2-(4-chlorophenyl)-1,2,3,4-tetrahydro-5H-chromeno[2,3-c]pyridin-5-one]	4.26
N#Cc1ccc(N2CCc3c(oc4c(Cl)cccc4c3=O)C2=O)cc1 [Example 30, 4-(9-chloro-1,5-dioxo-1,3,4,5-tetrahydro-2H-chromeno[2,3-c]pyridin-2-yl)benzonitrile]	32.5
COC(=O)c1cc(Cl)ccc1N1CCc2c(oc3c(Cl)cccc3c2=O)C1=O [Example 36, methyl 5-chloro-2-(9-chloro-1,5-dioxo-1,3,4,5-tetrahydro-2H-chromeno[2,3-c]pyridin-2-yl)benzoate]	21.6
Cc1ccc(N2CCc3c(oc4c(Cl)cccc4c3=O)C2=O)cc1 [Example 34, 9-chloro-2-(p-tolyl)-3,4-dihydro-2H-chromeno[2,3-c]pyridine-1,5-dione]	6.01
O=C1c2oc3c(Cl)cccc3c(=O)c2CCN1c1ncc(Cl)cc1C(F)(F)F [Example 43, 9-chloro-2-(5-chloro-3-(trifluoromethyl)pyridin-2-yl)-3,4-dihydro-2H-chromeno[2,3-c]pyridine-1,5-dione]	30.1
